Test results taken from patent US20250213707A1, “COMPOUND FOR INCREASING EFFICACY OF ONCOLYTIC VIRUSES” (ABLEVIA BIOTECH GMBH, priority 2022, published 2025).

Test system: IgG from human donors (anti-AAV antibodies)
Assay: Screen for anti-AAV antibodies in human sera, 2452 linear 15-amino-acid AAV peptides on microarrays (Table 1)
Type: binding
Design: key to group I: X: the deduplicated aggregate of the respective top 10 peptide hits for each donor was compiled and designated as group I; key to group II: X: the deduplicated aggregate of the respective top 25 peptide hits for each donor was compiled and designated as group II; key to group III: X: the deduplicated aggregate of the respective top 50 peptide hits for each donor was compiled and designated as group III
Conditions: for group I: membership in deduplicated aggregate of top 10 peptide hits for each donor
Description: 2452 linear peptides derived from the sequences of 16 different AAVs and with a sequence length of 15 amino-acids each were synthesized.
Samples obtained from human donors were screened for antibodies against these AAV-derived peptides immobilized on microarrays. To this end, IgG was prepared from blood obtained from the human donors by protein G purification. Each IgG sample was incubated with the peptide microarrays and Ig binding signals were detected by fluorescence. All antibody binding signals to the peptides on the arrays were background subtracted and ranked for each sample and a deduplicated aggregate of the respective top 250 peptide hits for each donor with the corresponding protein sequence of origin (as obtained from UniProt or other sources) was compiled (designated as group IV). Further, the deduplicated aggregate of the respective top 50 peptide hits for each donor was compiled and designated as group III. Further, the deduplicated aggregate of the respective top 25 peptide hits for each donor was compiled and designated as group II. Finally, the deduplicated aggregate of the respective top 10 peptide hits for each donor was compiled and designated as group I.
Altogether, group I contains 110 distinct peptide hits (assigned to the corresponding AAV vectors in Table 1), group II contains 289 distinct peptide hits, group III contains 428 distinct peptide hits and group IV contains 1271 distinct peptide hits. Evidently, group I is a subset of group II which in turn is a subset of group III which in turn is a subset of group IV. Groups I-IV correspond to the top 4.4%, […], 17.5% and 51.8%, respectively, of all peptides screened.

[1] = human donor IgG binding to linear 15-amino-acid AAV peptides on microarray, fluorescence
[2] = membership in deduplicated aggregate of top 25 peptide hits for each donor, human donor IgG binding to linear 15-amino-acid AAV peptides on microarray, fluorescence
[3] = membership in deduplicated aggregate of top 50 peptide hits for each donor, human donor IgG binding to linear 15-amino-acid AAV peptides on microarray, fluorescence
[4] = X = peptide belongs to the deduplicated aggregate of the top 50 peptide hits for each donor, linear 15-amino-acid AAV peptides, IgG binding by fluorescence
[5] = X = peptide belongs to the deduplicated aggregate of the top 25 peptide hits for each donor, linear 15-amino-acid AAV peptides, IgG binding by fluorescence
[6] = X = peptide in the deduplicated aggregate of the top 50 peptide hits for each donor (top 17.5% of all peptides screened), linear 15-amino-acid AAV peptides on microarrays, human donor IgG, fluorescence

With “DKAYDQQLKAGDNP (REGION 1..14: note = peptide derived from viral capsid protein) [SEQ ID NO: 1941]” the “group I” value [1] was “X”, the “group II” value [2] was “X” and the “group III” value [3] was “X”.
In the case of “339 (GNNFTFSYTFEDVPF; REGION 1..15: note = peptide derived from viral capsid protein) [compound 339]”, the “group III” value [4] was “X”.
With “341 (TFSYTFEDVPFHSSY; REGION 1..15: note = peptide derived from viral capsid protein) [compound 341]” the “group III” value [4] was “X”.
In the case of “338 (PLGLVEEPVKTAPGK; REGION 1..15: note = peptide derived from viral capsid protein) [compound 338]”, the “group III” value [4] was “X”.
For “296 (NTPVPADPPTTFNQA; REGION 1..15: note = peptide derived from viral capsid protein) [compound 296]”, the “group III” value [4] was “X”.
“281 (SKPSTSSDAEAGPSG; REGION 1..15: note = peptide derived from viral capsid protein) [compound 281]” was tested, and the “group II” value [5] was “X” and the “group III” value [4] was “X”.
“353 (TPWGYFDFNRFHCHF; REGION 1..15: note = peptide derived from viral capsid protein) [compound 353]” was tested, and the “group III” value [4] was “X”.
“289 (YLEGNMLITSESETQ; REGION 1..15: note = peptide derived from viral capsid protein) [compound 289]” was tested, and the “group II” value [5] was “X” and the “group III” value [4] was “X”.
For “322 (KSVNVDFTVDTNGVY; REGION 1..15: note = peptide derived from viral capsid protein) [compound 322]”, the “group III” value [4] was “X”.
In the case of “324 (SDIRDQSRNWLPGPC; REGION 1..15: note = peptide derived from viral capsid protein) [compound 324]”, the “group III” value [4] was “X”.
“EEEIKTTNPVATEE (REGION 1..14: note = peptide derived from viral capsid protein) [SEQ ID NO: 1935]” was tested, and the “group I” value [1] was “X”, the “group II” value [2] was “X” and the “group III” value [3] was “X”.
For SGGSTNDNTYFGYS [SEQ ID NO: 1965], the “group I” value [1] was “X”, the “group II” value [2] was “X” and the “group III” value [3] was “X”.
With “PRDWQRLINNNWGF (REGION 1..14: note = peptide derived from viral capsid protein) [SEQ ID NO: 1960]” the “group I” value [1] was “X”, the “group II” value [2] was “X” and the “group III” value [3] was “X”.
With “320 (GPPPPKPAERHKDDS; REGION 1..15: note = peptide derived from viral capsid protein) [compound 320]” the “group III” value [4] was “X”.
With “295 (DNPYLRYHADAEFQE; REGION 1..15: note = peptide derived from viral capsid protein) [compound 295]” the “group III” value [4] was “X”.
DAAALEHDKAYDQQ [SEQ ID NO: 1940] was tested, and the “group I” value [1] was “X”, the “group II” value [2] was “X” and the “group III” value [3] was “X”.
In the case of “332 (ISSQSGASNDNHYFG; REGION 1..15: note = peptide derived from viral capsid protein) [compound 332]”, the “group III” value [4] was “X”.
With “328 (STVQVFTDSEYQLPY; REGION 1..15: note = peptide derived from viral capsid protein) [compound 328]” the “group III” value [4] was “X”.
“336 (VTQNDGTTTIANNLT; REGION 1..15: note = peptide derived from viral capsid protein) [compound 336]” was tested, and the “group III” value [4] was “X”.
For “363 (ASFITQYSTGQVSVE; REGION 1..15: note = peptide derived from viral capsid protein) [compound 363]”, the “group III” value [4] was “X”.
With “EYQLPYVLGSAHQG (REGION 1..14: note = peptide derived from viral capsid protein) [SEQ ID NO: 1948]” the “group I” value [1] was “X”, the “group II” value [2] was “X” and the “group III” value [3] was “X”.
In the case of “356 (YSTGQVSVEIEWELQ; REGION 1..15: note = peptide derived from viral capsid protein) [compound 356]”, the “group III” value [4] was “X”.
“318 (DKGEPVNEADAAALE; REGION 1..15: note = peptide derived from viral capsid protein) [compound 318]” was tested, and the “group III” value [4] was “X”.
For “335 (VKEVTQNDGTTTIAN; REGION 1..15: note = peptide derived from viral capsid protein) [compound 335]”, the “group III” value [4] was “X”.
“416 (LNSFITQYSTGQVSV; REGION 1..15: note = peptide derived from viral capsid protein) [compound 416]” was tested, and the “group III” value [6] was “X”.
For “407 (NTPVPADPPTAFNKD; REGION 1..15: note = peptide derived from viral capsid protein) [compound 407]”, the “group III” value [6] was “X”.
For “SQSLDRLMNPLIDQ (REGION 1..14: note = peptide derived from viral capsid protein) [SEQ ID NO: 1966]”, the “group I” value [1] was “X”, the “group II” value [2] was “X” and the “group III” value [3] was “X”.
In the case of “299 (SRTQSTGGTAGTQQL; REGION 1..15: note = peptide derived from viral capsid protein) [compound 299]”, the “group III” value [4] was “X”.
“333 (MITDEEEIRTTNPVA; REGION 1..15: note = peptide derived from viral capsid protein) [compound 333]” was tested, and the “group III” value [4] was “X”.
For “SESVPDPQPLGEPP (REGION 1..14: note = peptide derived from viral capsid protein) [SEQ ID NO: 1922]”, the “group I” value [1] was “X”, the “group II” value [2] was “X” and the “group III” value [3] was “X”.
For “283 (EFLGLEAGPPKPKPN; REGION 1..15: note = peptide derived from viral capsid protein) [compound 283]”, the “group II” value [5] was “X” and the “group III” value [4] was “X”.
With “334 (RQWWKLKPGPPPPKP; REGION 1..15: note = peptide derived from viral capsid protein) [compound 334]” the “group III” value [4] was “X”.
KNTPVPADPPTTES [SEQ ID NO: 1930] was tested, and the “group I” value [1] was “X”, the “group II” value [2] was “X” and the “group III” value [3] was “X”.
For “312 (NEADAAALEHDKAYD; REGION 1..15: note = peptide derived from viral capsid protein) [compound 312]”, the “group III” value [4] was “X”.
With “346 (TVAVNLQSSSTDPAT; REGION 1..15: note = peptide derived from viral capsid protein) [compound 346]” the “group III” value [4] was “X”.
With “YHLNGRDSLVNPGP (REGION 1..14: note = peptide derived from viral capsid protein) [SEQ ID NO: 1904]” the “group I” value [1] was “X”, the “group II” value [2] was “X” and the “group III” value [3] was “X”.
In the case of “LPYVLGSAHQGCLP (REGION 1..14: note = peptide derived from viral capsid protein) [SEQ ID NO: 1954]”, the “group I” value [1] was “X”, the “group II” value [2] was “X” and the “group III” value [3] was “X”.
For “359 (SVPDPQPLGEPPATP; REGION 1..15: note = peptide derived from viral capsid protein) [compound 359]”, the “group III” value [4] was “X”.
In the case of “313 (QGCLPPFPADVFMVP; REGION 1..15: note = peptide derived from viral capsid protein) [compound 313]”, the “group III” value [4] was “X”.
